The NIST ThermoML archive (doi:10.1016/j.tca.2018.05.015)
± gives the expanded uncertainty stated by the source.

Conditions: for mass density: 101.33 kPa, X-ray diffraction; for Triple point temperature: DSC

**Q.** With `CC(C)(C#N)N=NC(C)(C)C#N` [2,2'-dimethyl-2,2'-azodipropionitrile] as the compound, how does the mass density (346.15 K, Crystal 2) read?
**A.** 1100 ± 22 kg/m3

**Q.** And the mass density (356.15 K, Crystal 1)?
**A.** 1096 ± 22 kg/m3

**Q.** What about the Triple point temperature (Crystal 1) of the same compound?
**A.** 373.15 ± 5 K

**Q.** And the Triple point temperature (Crystal 2)?
**A.** 351.15 ± 5 K
